# Reference: patent US10206937B2, “Boronic acid derivatives and therapeutic uses thereof” (Qpex Biopharma, Inc., priority 2014, dated 2019)
# System: strains of Enterobacteriaceae producing various carbapenemases (class A, D and B; 104 strains)
# Experiment: Antibiotics potentiation by Compound 27 (MIC; meropenem, doripenem, ertapenem, cefepime)
# Format: cell-based
# Settings: + 27 = with Compound 27 at fixed 4 μg/ml
smiles,measurement,setting,value
COc1ccc2c(c1C(=O)O)OB(O)C(Sc1nnc(N)s1)C2 (centres unmarked) [E + 27],MIC,strain CF1012 Citrobacter freundii (KPC-2),X (MIC of less than 1 μg/mL)
same,MIC,strain CF1021 Citrobacter freundii (CMY-type; VIM-1),X (MIC of less than 1 μg/mL)
same,MIC,"strain CF1022 Citrobacter freundii (SHV-12(2be), TEM-OSBL(2b); IMP-8)",X (MIC of less than 1 μg/mL)
same,MIC,"strain CF1023 Citrobacter freundii (SHV-12(2be), TEM-OSBL(2b); CTX-M-3; CMY-34; NDM-1)",X (MIC of less than 1 μg/mL)
same,MIC,strain CL1080 Enterobacter cloacae (IMP-1),Y (MIC of 1 μg/mL to 10 μg/mL)
same,MIC,"strain EA1019 Enterobacter aerogenes (SHV-5, VIM-1)",X (MIC of less than 1 μg/mL)
same,MIC,strain EC1007 Escherichia coli (KPC-3),X (MIC of less than 1 μg/mL)
same,MIC,"strain EC1061 Escherichia coli (NDM-1, CMY-6)",X (MIC of less than 1 μg/mL)
same,MIC,"strain EC1062 Escherichia coli (OXA-48, CTX-M-15)",X (MIC of less than 1 μg/mL)
same,MIC,"strain EC1064 Escherichia coli (NDM-1, CMY-6, CTX-M-15)",Z (MIC of greater than 10 μg/mL)
same,MIC,strain EC1065 Escherichia coli (IMP-1),X (MIC of less than 1 μg/mL)
same,MIC,strain EC1068 Escherichia coli (VIM-1),X (MIC of less than 1 μg/mL)
same,MIC,strain EC1069 Escherichia coli (CTX-M-27; NDM-1),X (MIC of less than 1 μg/mL)
same,MIC,strain EC1070 Escherichia coli (TEM-OSBL(2b); CMY-42; NDM-5),X (MIC of less than 1 μg/mL)
same,MIC,strain EC1072 Escherichia coli (CTX-M-3; NDM-1),X (MIC of less than 1 μg/mL)
same,MIC,strain ECL1004 Enterobacter cloacae (NMC-A),X (MIC of less than 1 μg/mL)
same,MIC,"strain ECL1026 Enterobacter cloacae (KPC-2, TEM-1)",X (MIC of less than 1 μg/mL)
same,MIC,"strain ECL1036 Enterobacter cloacae (KPC-3, TEM-1)",X (MIC of less than 1 μg/mL)
same,MIC,strain ECL1045 Enterobacter cloacae (VIM-1),Y (MIC of 1 μg/mL to 10 μg/mL)
same,MIC,"strain ECL1055 Enterobacter cloacae (KPC-3, TEM)",X (MIC of less than 1 μg/mL)
same,MIC,"strain ECL1057 Enterobacter cloacae (NDM-1, TEM-1, CTX-M-15)",Z (MIC of greater than 10 μg/mL)
same,MIC,"strain ECL1058 Enterobacter cloacae (KPC-3, SHV-11, TEM-1)",Y (MIC of 1 μg/mL to 10 μg/mL)
same,MIC,"strain ECL1059 Enterobacter cloacae (KPC-3, SHV-12, TEM-1)",X (MIC of less than 1 μg/mL)
same,MIC,"strain ECL1061 Enterobacter cloacae (KPC-3, Hyper AmpC expression)",Y (MIC of 1 μg/mL to 10 μg/mL)
same,MIC,strain ECL1082 Enterobacter cloacae (VIM-1),X (MIC of less than 1 μg/mL)
same,MIC,strain ECL1084 Enterobacter cloacae (CTX-M-15; ACT-16; NDM-1),X (MIC of less than 1 μg/mL)
same,MIC,"strain ECL1085 Enterobacter cloacae (SHV-31(2be), TEM-1(2b); CTX-M-15; NDM-1)",X (MIC of less than 1 μg/mL)
same,MIC,"strain ECL1086 Enterobacter cloacae (VIM-31, OXA-48(c))",Y (MIC of 1 μg/mL to 10 μg/mL)
same,MIC,strain ECL1087 Enterobacter cloacae (VIM-1),X (MIC of less than 1 μg/mL)
same,MIC,strain ECL1088 Enterobacter cloacae (TEM-1(2b); CTX-M-14; ACT-type; VIM-1),X (MIC of less than 1 μg/mL)
same,MIC,strain ECL1089 Enterobacter cloacae (ACT-type; IMP-1),Z (MIC of greater than 10 μg/mL)
same,MIC,strain ECL1090 Enterobacter cloacae (TEM-1(2b); CTX-M-22; ACT-type; IMP-8),X (MIC of less than 1 μg/mL)
same,MIC,strain ECL1091 Enterobacter cloacae (VIM-1),X (MIC of less than 1 μg/mL)
same,MIC,strain ECL1092 Enterobacter cloacae (TEM-OSBL(2b); ACT-32; VIM-1),X (MIC of less than 1 μg/mL)
same,MIC,strain ECL1093 Enterobacter cloacae (TEM-OSBL(2b); ACT-32; VIM-1),X (MIC of less than 1 μg/mL)
same,MIC,strain ECL1094 Enterobacter cloacae (VIM-1),Y (MIC of 1 μg/mL to 10 μg/mL)
same,MIC,"strain ECL1096 Enterobacter cloacae (CMY-4, VIM-4, OXA-48(c))",X (MIC of less than 1 μg/mL)
same,MIC,"strain ECL1097 Enterobacter cloacae (SHV-31(2be), TEM-OSBL(2b); CTX-M-15; ACT-31; NDM-1)",X (MIC of less than 1 μg/mL)
same,MIC,strain ECL1098 Enterobacter cloacae (TEM-OSBL(2b); DHA-1; ACT-16; NDM-1),X (MIC of less than 1 μg/mL)
same,MIC,strain KP1001 Klebsiella pneumoniae (KPC TEM SHV),Z (MIC of greater than 10 μg/mL)
same,MIC,strain KP1002 Klebsiella pneumoniae (KPC TEM SHV),X (MIC of less than 1 μg/mL)
same,MIC,strain KP1003 Klebsiella pneumoniae (KPC TEM SHV),X (MIC of less than 1 μg/mL)
same,MIC,"strain KP1004 Klebsiella pneumoniae (KPC-2, TEM-1, SHV-11)",X (MIC of less than 1 μg/mL)
same,MIC,strain KP1008 Klebsiella pneumoniae (KPC-2),X (MIC of less than 1 μg/mL)
same,MIC,"strain KP1014 Klebsiella pneumoniae (VIM-1, TEM, SHV)",X (MIC of less than 1 μg/mL)
same,MIC,"strain KP1054 Klebsiella pneumoniae (VIM-1, SHV-11)",X (MIC of less than 1 μg/mL)
same,MIC,"strain KP1059 Klebsiella pneumoniae (VIM-1, SHV-11)",Y (MIC of 1 μg/mL to 10 μg/mL)
same,MIC,"strain KP1061 Klebsiella pneumoniae (KPC-3, SHV-11, TEM-1)",X (MIC of less than 1 μg/mL)
same,MIC,"strain KP1064 Klebsiella pneumoniae (KPC-2, SHV-11, TEM-1)",Z (MIC of greater than 10 μg/mL)
same,MIC,"strain KP1065 Klebsiella pneumoniae (VIM-1, SHV-11)",X (MIC of less than 1 μg/mL)
same,MIC,"strain KP1070 Klebsiella pneumoniae (KPC-2, SHV-11, TEM-1)",X (MIC of less than 1 μg/mL)
same,MIC,"strain KP1074 Klebsiella pneumoniae (KPC-3, SHV-11, TEM)",Z (MIC of greater than 10 μg/mL)
same,MIC,"strain KP1081 Klebsiella pneumoniae (NDM-1, TEM-1, SHV-11, CMY-6, CTX-M-15)",Y (MIC of 1 μg/mL to 10 μg/mL)
same,MIC,"strain KP1082 Klebsiella pneumoniae (KPC-2, SHV-1)",X (MIC of less than 1 μg/mL)
same,MIC,"strain KP1083 Klebsiella pneumoniae (KPC-3, SHV-1, TEM-1)",X (MIC of less than 1 μg/mL)
same,MIC,"strain KP1084 Klebsiella pneumoniae (KPC-3, SHV-11, TEM-1)",Z (MIC of greater than 10 μg/mL)
same,MIC,"strain KP1086 Klebsiella pneumoniae (OXA-48, CTX-M-15, TEM, SHV)",Z (MIC of greater than 10 μg/mL)
same,MIC,"strain KP1087 Klebsiella pneumoniae (KPC-2, CTX-M-15, SHV-11, TEM-1)",Y (MIC of 1 μg/mL to 10 μg/mL)
same,MIC,"strain KP1088 Klebsiella pneumoniae (KPC-3, SHV-11, TEM-1)",X (MIC of less than 1 μg/mL)
same,MIC,"strain KP1089 Klebsiella pneumonias (OXA-181, CTX-M-15, TEM, SHV)",X (MIC of less than 1 μg/mL)
same,MIC,strain KP1095 Klebsiella pneumoniae (KPC-2 TEM-1 SHV-1),X (MIC of less than 1 μg/mL)
same,MIC,strain KP1096 Klebsiella pneumoniae (KPC-2 TEM-181 SHV-11),X (MIC of less than 1 μg/mL)
same,MIC,strain KP1097 Klebsiella pneumonias (IMP-1),X (MIC of less than 1 μg/mL)
same,MIC,strain KP1098 Klebsiella pneumoniae (IMP-26),Y (MIC of 1 μg/mL to 10 μg/mL)
same,MIC,strain KP1104 Klebsiella pneumoniae (KPC TEM),X (MIC of less than 1 μg/mL)
same,MIC,strain KP1105 Klebsiella pneumoniae (KPC TEM SHV),X (MIC of less than 1 μg/mL)
same,MIC,strain KP1159 Klebsiella pneumoniae (SHV-1(2b); CTX-M-15; IMP-4),Y (MIC of 1 μg/mL to 10 μg/mL)
same,MIC,strain KP1160 Klebsiella pneumoniae (SHV-28(2be); CTX-M-15; IMP-26),Y (MIC of 1 μg/mL to 10 μg/mL)
same,MIC,strain KP1161 Klebsiella pneumoniae (NDM-1),X (MIC of less than 1 μg/mL)
same,MIC,strain KP1164 Klebsiella pneumoniae (SHV-12(2be); VIM-1),X (MIC of less than 1 μg/mL)
same,MIC,strain KP1165 Klebsiella pneumoniae (SHV-11(2b); CTX-M-15; VIM-27),Z (MIC of greater than 10 μg/mL)
same,MIC,strain KP1166 Klebsiella pneumoniae (SHV-5(2be); VIM-26),Y (MIC of 1 μg/mL to 10 μg/mL)
same,MIC,strain KP1167 Klebsiella pneumoniae (SHV-12(2be); VIM-1),X (MIC of less than 1 μg/mL)
same,MIC,strain KP1169 Klebsiella pneumoniae (SHV-11(2b); VIM-1),X (MIC of less than 1 μg/mL)
same,MIC,strain KP1170 Klebsiella pneumoniae (SHV-11(2b); CTX-M-15; NDM-1),X (MIC of less than 1 μg/mL)
same,MIC,strain KP1172 Klebsiella pneumoniae (SHV-31(2be); DHA-1; VIM-1),X (MIC of less than 1 μg/mL)
same,MIC,strain KP1173 Klebsiella pneumoniae (TEM-33(2br); CTX-M-15; IMP-1),X (MIC of less than 1 μg/mL)
same,MIC,strain KP1174 Klebsiella pneumoniae (CTX-M-14; IMP-1),X (MIC of less than 1 μg/mL)
same,MIC,strain KP1175 Klebsiella pneumoniae (SHV-OSBL(2b); VIM-1),X (MIC of less than 1 μg/mL)
same,MIC,"strain KP1177 Klebsiella pneumoniae (SHV-OSBL(2b), TEM-OSBL(2b); CTX-M-15; NDM-1)",X (MIC of less than 1 μg/mL)
same,MIC,strain KP1178 Klebsiella pneumoniae (SHV-OSBL(2b;) TEM-OSBL(2b); CTX-M-15; NDM-1),X (MIC of less than 1 μg/mL)
same,MIC,"strain KP1179 Klebsiella pneumoniae (SHV-12(2be), TEM-OSBL(2b); CTX-M-15; NDM-7)",X (MIC of less than 1 μg/mL)
same,MIC,"strain KP1180 Klebsiella pneumoniae (SHV-OSBL(2b), TEM-OSBL(2b); CTX-M-15; DHA-1; IMP-26)",X (MIC of less than 1 μg/mL)
same,MIC,strain KP1181 Klebsiella pneumoniae (SHV-OSBL(2b); CTX-M-15; IMP-26),X (MIC of less than 1 μg/mL)
same,MIC,"strain KP1183 Klebsiella pneumoniae (SHV-OSBL(2b), TEM-OSBL(2b); CTX-M-15; NDM-1)",X (MIC of less than 1 μg/mL)
same,MIC,strain KP1184 Klebsiella pneumoniae (SHV-OSBL(2b); IMP-1),X (MIC of less than 1 μg/mL)
same,MIC,"strain KP1185 Klebsiella pneumoniae (SHV-OSBL(2b), TEM-OSBL(2b); IMP-4)",Y (MIC of 1 μg/mL to 10 μg/mL)
same,MIC,strain KP1186 Klebsiella pneumoniae (CTX-M-15; NDM-1),X (MIC of less than 1 μg/mL)
same,MIC,"strain KP1187 Klebsiella pneumoniae (SHV-55(2be), TEM-OSBL(2b); CTX-M-15; NDM-1)",X (MIC of less than 1 μg/mL)
same,MIC,strain KP1188 Klebsiella pneumoniae (SHV-OSBL(2b); CTX-M-15; NDM-1),Y (MIC of 1 μg/mL to 10 μg/mL)
same,MIC,strain KP1189 Klebsiella pneumoniae (TEM-OSBL(2b); CTX-M-15; CTX-M-27; NDM-1),X (MIC of less than 1 μg/mL)
same,MIC,strain KPM1123 Klebsiella pneumoniae (KPC-2 TEM SHV),X (MIC of less than 1 μg/mL)
same,MIC,strain KPM1202 Klebsiella pneumoniae (KPC SHV TEM),X (MIC of less than 1 μg/mL)
same,MIC,strain KPM1203 Klebsiella pneumoniae (KPC SHV TEM),X (MIC of less than 1 μg/mL)
same,MIC,strain KPM1344 Klebsiella pneumoniae (VIM-1),X (MIC of less than 1 μg/mL)
same,MIC,strain KPM1345 Klebsiella pneumoniae (VIM-1 SHV),X (MIC of less than 1 μg/mL)
same,MIC,strain KPM1347 Klebsiella pneumoniae (NDM-1 SHV CTX-M-15),X (MIC of less than 1 μg/mL)
same,MIC,"strain KX1017 Klebsiella oxytoca (KPC-2, OXA-2, SHV-30)",X (MIC of less than 1 μg/mL)
same,MIC,"strain KX1018 Klebsiella oxytoca (KPC-2, SHV-40, OXY-1)",X (MIC of less than 1 μg/mL)
same,MIC,"strain KX1019 Klebsiella oxytoca (KPC-2, OXA-2)",X (MIC of less than 1 μg/mL)
same,MIC,strain PM1024 Proteus mirabilis (TEM-1(2b); CMY-16; VIM-1),X (MIC of less than 1 μg/mL)
same,MIC,strain PM1026 Proteus mirabilis (DHA-1; IMP-26),X (MIC of less than 1 μg/mL)
same,MIC,strain PM1027 Proteus mirabilis (VIM-5),X (MIC of less than 1 μg/mL)
same,MIC,strain SM1023 Serratia marcescens (VIM-4),Y (MIC of 1 μg/mL to 10 μg/mL)
